Several values for one entry are separate records, joined by “and”; a condition that tells them apart may be missing. Equal values may be shown once. Read-outs that look alike come from different tables or passages of the source.
Tests used:
[1] = tested on: A549 (lung adenocarcinoma); assay: WST-1 cell viability, lung cancer cell line A549; type: cell-based; conditions: Homo sapiens
Protocol: (§1) The cell numbers were counted and reseed as 2×10^6 in culture plate/flask. Then, the culture medium were added to a volume of 10 ml, and the cells were cultured for 2-3 days. Then, the cells were suspended for loading into 96-well plates. The number of cells was 3000 and the volume of the culture medium was 100 μl each well.
(§2) Removing the original culture medium from 96-well plate. Then add 100 μl of commercially drug at a concentration of 10 μM per well. After 72 hours, add the diluted WST-1 reagent to the well with 100 μl/well, and the diluted WST-1 reagent was acquired from the dilution of 9:1 medium and WST-1 stock reagent. Finally, the total volume of each well was 200 μl/well. Culture the 96-well plate at 37° C. for 30 to 90 minutes. Detecting and calculate the survival rate of each cancer cells with an ELISA reader at OD450 nm.

[2] = tested on: H1650 (lung adenocarcinoma); assay: WST-1 cell viability, lung cancer cell line H1650; type: cell-based; conditions: Homo sapiens
Protocol: as §1, §2

[3] = tested on: AGS (Gastric Adenocarcinoma); assay: WST-1 cell viability, gastric cancer cell line AGS; type: cell-based; conditions: 72 h
Protocol: as §1, §2

[4] = tested on: HepG2 (hepatocellular carcinoma); assay: WST-1 cell viability, hepatic cancer cell line HepG2; type: cell-based; conditions: Homo sapiens
Protocol: as §1, §2

[5] = tested on: U2OS; assay: WST-1 cell viability, osteosarcoma cell line U2OS; type: cell-based; conditions: Homo sapiens, 72 h
Protocol: as §1, §2

[6] = tested on: A375 (amelanotic melanoma); assay: WST-1 cell viability, skin cancer cell line A375; type: cell-based; conditions: Homo sapiens
Protocol: as §1, §2

[7] = WST-1 cell viability, normal kidney cell line HEK293; type: cell-based; conditions: human, HEK293 normal kidney cells
Protocol: as §1, §2

[8] = tested on: breast cancer cells; assay: Summary of cell viability, breast cancer; type: cell-based; conditions: 72 h, read-out: Inhibitory effect
Protocol: as §2

[9] = tested on: colorectal cancer cells; assay: Summary of cell viability, colorectal cancer; type: cell-based; conditions: 72 h, read-out: Inhibitory effect
Protocol: as §2

[10] = tested on: gastric cancer cells (AGS); assay: Animal model test of gastric cancer, tumor size; type: in vivo, mice
Protocol: In this invention, the female mice were (BALB/cAnN.Cg-Foxn1^nu/CrlNarl) purchased from National Laboratory Animal Center (Taiwan). The weight of the mice were 21±1 g. These mice were subcutaneously injected with gastric cancer cells (AGS) and then put these mice into different cage sat random. The drug test experiment was divided into three groups, include “control group”, “low dose group (100 mg/kg/day)”, and “high dose group (200 mg/kg/day)”. These mice were then injected test drug intraperitoneally once daily […]. The tumor sizes and body weight were measured twice a week. The tumor sizes were measured and calculated by formula: (L×W^2)/2. L represents the tumor longest length. W represents the tumor shortest diameter.

[11] = Animal model test of gastric cancer, body weight and survival of mice; type: in vivo; conditions: for weight: mice A, B, C
Protocol: In this invention, the female mice were (BALB/cAnN.Cg-Foxn1^nu/CrlNarl) purchased from National Laboratory Animal Center (Taiwan). The weight of the mice were 21±1 g. These mice were subcutaneously injected with gastric cancer cells (AGS) and then put these mice into different cage sat random. The drug test experiment was divided into three groups, include “control group”, “low dose group (100 mg/kg/day)”, and “high dose group (200 mg/kg/day)”. These mice were then injected test drug intraperitoneally once daily until the tumor size reached 100 mm^3. The tumor sizes and body weight were measured twice a week. The tumor sizes were measured and calculated by formula: (L×W^2)/2. L represents the tumor longest length. W represents the tumor shortest diameter.

[12] = average of 4 tests, read-out: survival rate (inhibition effect), Average
[13] = 100 mg/kg/day i.p., Fifth measurement
[14] = 100 mg/kg/day i.p., Fifth measurement, mice A, B, C
[15] = 100 mg/kg/day i.p., First measurement
[16] = 100 mg/kg/day i.p., First measurement, mice A, B, C
[17] = 100 mg/kg/day i.p., Fourth measurement
[18] = 100 mg/kg/day i.p., Fourth measurement, mice A, B, C
[19] = 100 mg/kg/day i.p., Second measurement
[20] = 100 mg/kg/day i.p., Second measurement, mice A, B, C
[21] = 100 mg/kg/day i.p., Third measurement
[22] = 100 mg/kg/day i.p., Third measurement, mice A, B, C
[23] = 200 mg/kg/day i.p., Fifth measurement
[24] = 200 mg/kg/day i.p., Fifth measurement, mice A, B, C
[25] = 200 mg/kg/day i.p., First measurement
[26] = 200 mg/kg/day i.p., First measurement, mice A, B, C
[27] = 200 mg/kg/day i.p., Fourth measurement
[28] = 200 mg/kg/day i.p., Fourth measurement, mice A, B, C
[29] = 200 mg/kg/day i.p., Second measurement
[30] = 200 mg/kg/day i.p., Second measurement, mice A, B, C
[31] = 200 mg/kg/day i.p., Third measurement
[32] = both low dose and high dose, FIG. 2

## Fc1ccc([C@@H]2CCNC[C@H]2COc2ccc3c(c2)OCO3)cc1 [Paroxetine]
[1]; A549, 72 h, A549, average of 4 tests, read-out: survival rate (inhibition effect), Average
  viability at 10 µM: 92.4%
[1]; A549, A549, 72 h, run 0524-10 min, read-out: survival rate (inhibition effect)
  viability at 10 µM: 84.2%
[1]; A549, A549, 72 h, run 0526-10 min, read-out: survival rate (inhibition effect)
  viability at 10 µM: 127%
[1]; A549, A549, 72 h, run 0529-10 min, read-out: survival rate (inhibition effect)
  viability at 10 µM: 54%
[1]; A549, A549, 72 h, run 0531-10 min, read-out: survival rate (inhibition effect)
  viability at 10 µM: 104%
[2]; NCI-H1650, 72 h, H1650, average of 4 tests, read-out: survival rate (inhibition effect), Average
  viability at 10 µM: 56.9%
[2]; NCI-H1650, H1650, 72 h, run 1-10 min, read-out: survival rate (inhibition effect)
  viability at 10 µM: 66.4%
[2]; NCI-H1650, H1650, 72 h, run 2-20 min, read-out: survival rate (inhibition effect)
  viability at 10 µM: 31.6%
[2]; NCI-H1650, H1650, 72 h, run 3-20 min, read-out: survival rate (inhibition effect)
  viability at 10 µM: 58.2%
[2]; NCI-H1650, H1650, 72 h, run 4-20 min, read-out: survival rate (inhibition effect)
  viability at 10 µM: 71.3%
[3]; [12]
  viability at 10 µM: 12.2%
[3]; run 0510-10 min, read-out: survival rate (inhibition effect)
  viability at 10 µM: 12%
[3]; run 0512-10 min, read-out: survival rate (inhibition effect)
  viability at 10 µM: 11.1%
[3]; run 0515-10 min, read-out: survival rate (inhibition effect)
  viability at 10 µM: 12.7%
[3]; run 0517-10 min, read-out: survival rate (inhibition effect)
  viability at 10 µM: 12.8%
[4]; HepG2, 72 h, HepG2, average of 4 tests, read-out: survival rate (inhibition effect), Average
  viability at 10 µM: 54.1%
[4]; HepG2, HepG2, 72 h, run 0524-20 min, read-out: survival rate (inhibition effect)
  viability at 10 µM: 66.4%
[4]; HepG2, HepG2, 72 h, run 0526-20 min, read-out: survival rate (inhibition effect)
  viability at 10 µM: 58.3%
[4]; HepG2, HepG2, 72 h, run 0529-20 min, read-out: survival rate (inhibition effect)
  viability at 10 µM: 50.1%
[4]; HepG2, HepG2, 72 h, run 0531-20 min, read-out: survival rate (inhibition effect)
  viability at 10 µM: 41.7%
[5]; [12]
  viability at 10 µM: 33.2%
[5]; run 6-26-10 min, read-out: survival rate (inhibition effect)
  viability at 10 µM: 40.6%
[5]; run 6-28-10 min, read-out: survival rate (inhibition effect)
  viability at 10 µM: 30.8%
[5]; run 6-30-10 min, read-out: survival rate (inhibition effect)
  viability at 10 µM: 30.3%
[5]; run 7-3-10 min, read-out: survival rate (inhibition effect)
  viability at 10 µM: 31.1%
[5]; summary, osteosarcoma, read-out: Inhibitory effect
  viability at 10 µM: 33.2%
[6]; A-375, 72 h, A375, average of 4 tests, read-out: survival rate (inhibition effect), Average
  viability at 10 µM: 43.8%
[6]; A-375, A375, 72 h, run 0602-30 min, read-out: survival rate (inhibition effect)
  viability at 10 µM: 46.8%
[6]; A-375, A375, 72 h, run 0605-10 min, read-out: survival rate (inhibition effect)
  viability at 10 µM: 44.4%
[6]; A-375, A375, 72 h, run 0607-10 min, read-out: survival rate (inhibition effect)
  viability at 10 µM: 35.4%
[6]; A-375, A375, 72 h, run 0609-10 min, read-out: survival rate (inhibition effect)
  viability at 10 µM: 48.8%
[7]; HEK293, average of 4 tests, read-out: survival rate (inhibition effect), Average
  viability at 72 h, 10 µM: 71.4%
[7]; HEK293, run 0602-30 min, read-out: survival rate (inhibition effect)
  viability at 72 h, 10 µM: 64.9%
[7]; HEK293, run 0605-30 min, read-out: survival rate (inhibition effect)
  viability at 72 h, 10 µM: 76.8%
[7]; HEK293, run 0607-30 min, read-out: survival rate (inhibition effect)
  viability at 72 h, 10 µM: 76%
[7]; HEK293, run 0609-30 min, read-out: survival rate (inhibition effect)
  viability at 72 h, 10 µM: 67.8%
[7]; summary, kidney cell, read-out: Inhibitory effect
  viability at 72 h, 10 µM: 71.4%
[8]
  viability at 10 µM: 46.5%
[9]
  viability at 10 µM: 43.2%
[10]; [13]
  Tumor volume growth, average: −8.333 mm3
  volume, average: 63.333 mm3
[10]; [14]
  longest length: 6 mm and 4 mm
  width: 6 mm and 5 mm and 4 mm
[10]; [15]
  Tumor volume growth, average: 113.1667 mm3
  volume, average: 113.1667 mm3
[10]; [16]
  Tumor volume growth: 87.5 mm3 and 144 mm3 and 108 mm3
  longest length: 7 mm and 8 mm and 6 mm
  volume: 87.5 mm3 and 144 mm3 and 108 mm3
  width: 5 mm and 6 mm
[10]; [17]
  Tumor volume growth, average: −18.167 mm3
  volume, average: 71.667 mm3
[10]; [18]
  longest length: 6 mm and 4 mm
  width: 6 mm and 4 mm and 5 mm
[10]; [19]
  Tumor volume growth, average: −4.167 mm3
  volume, average: 109 mm3
[10]; [20]
  longest length: 6 mm and 7 mm
  volume: 75 mm3 and 126 mm3
  width: 5 mm and 6 mm
[10]; [21]
  Tumor volume growth, average: −19.167 mm3
  volume, average: 89.833 mm3
[10]; [22]
  longest length: 7 mm
  width: 6 mm and 4 mm and 5 mm
[10]; [23]
  Tumor volume growth, average: 0 mm3
  volume, average: 0 mm3
[10]; [24]
  Tumor volume growth: 0 mm3
  longest length: 0 mm
  volume: 0 mm3
  width: 0 mm
[10]; [25]
  Tumor volume growth, average: 78.5 mm3
  volume, average: 78.5 mm3
[10]; [26]
  longest length: 6 mm and 8 mm and 7 mm
  width: 4 mm and 5 mm
[10]; [27]
  Tumor volume growth, average: −13.33 mm3
  volume, average: 0 mm3
[10]; [28]
  longest length: 0 mm
  volume: 0 mm3
  width: 0 mm
[10]; [29]
  Tumor volume growth, average: −25.8333 mm3
  volume, average: 52.67 mm3
[10]; [30]
  longest length: 6 mm and 5 mm and 7 mm
  width: 4 mm and 3 mm and 5 mm
[10]; [31]
  Tumor volume growth, average: −39.33 mm3
  volume, average: 13.333 mm3
[10]; [32]
  inhibition effect on tumor cells: significant inhibition effect
[10]; both low dose and high dose, FIG. 3
  Tumor volume growth: effectively slow down the tumor volume growth
[10]; high doses, FIG. 3
  inhibition of tumor growth, high doses compared with low: better effect to inhibit tumor growth
[11]; [13]
  weight: 22 g and 20 g
[11]; [15]
  weight: 19 g and 18 g
[11]; [17]
  weight: 22 g and 20 g
[11]; [19]
  weight: 19 g and 21 g and 20 g
[11]; [21]
  weight: 20.5 g and 23.5 g and 19 g
[11]; [23]
  weight: 21 g and 20 g
[11]; [25]
  weight: 19 g and 18.5 g and 20 g
[11]; [27]
  weight: 20 g and 21 g
[11]; [29]
  weight: 20 g and 23 g
[11]; [31]
  weight: 19 g and 18.5 g
[11]; both high and low doses
  health status / death of tested mice during the treatment: without death
[11]; [32]
  weight of mice during the experiment: did not show a significant decrease
